One test relates to jejunal mucosal 5-HT in mice (C57 BL6). The experiment in a line: Intestinal 5-HT depletion assay (Example B, single 150 mg/kg oral dose). The format is in vivo, mouse. The note with it: one day after oral administration of a single 150 mg/kg dose, P-value class (ANOVA). Summed up:
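C57 BL6 mice received one 150 mg/kg oral gavage dose; jejunal mucosa was homogenized in acidic trichloroacetic acid buffer and 5-HT measured by HPLC. Levels normalized to BCA protein, expressed as mean percent reduction versus vehicle ± SEM; ANOVA significance.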
Turning to `CCOC(=O)[C@@H]1CC2(CCN(c3cc(O[C@H](c4ccc(Cl)cc4-n4ccc(C)n4)C(F)(F)F)nc(N)n3)CC2)CN1` [Example 63az, (S)-ethyl 8-(2-amino-6-((R)-1-(4-chloro-2-(3-methyl-1H-pyrazol-1-yl)phenyl)-2,2,2-trifluoroethoxy)pyrimidin-4-yl)-2,8-diazaspiro[4.5]decane-3-carboxylate], the “Efficacy (statistical significance of reduction of mucosal 5-HT concentrations relative to vehicle)” value is given as “*** (*** refers to P<0.005)”. On the same count and under the same terms, for `CCOC(=O)[C@@H]1CC2(CCN(c3cc(O[C@H](c4ccc(-c5ccc(C)c(C)c5)cc4-n4ccc(C)n4)C(F)(F)F)nc(N)n3)CC2)CN1` [Example 63bd, (S)-ethyl 8-(2-amino-6-((R)-1-(3′,4′-dimethyl-3-(3-methyl-1H-pyrazol-1-yl)-[1,1′-biphenyl]-4-yl)-2,2,2-trifluoroethoxy)pyrimidin-4-yl)-2,8-diazaspiro[4.5]decane-3-carboxylate] the value was “*** (*** refers to P<0.005)”.

The next test shares this test system. Description: Reduction of mucosal 5-HT concentrations (Example C, repeated oral dosing). The format is in vivo, mouse. The note with it: (title), P-value class. As to the method: The efficacy of the TPH1 inhibitors of the invention was assessed for the ability to decrease intestinal serotonin concentration in mice. Mice (C57 BL6) were administered an oral dose of 10 or 50 mg/kg of the test article in the evening. […] Following an overnight fast, each animal was euthanized by exsanguination under isoflurane anesthesia. Jejunal intestinal mucosa was isolated and homogenized in […] of a buffer containing 0.3M trichloroacetic acid, 0.1M sodium acetate, 10 mM EDTA, 20 mM sodium bisulfate and 50 mM ascorbic acid. Following centrifugation the 5-HT levels in the supernatants were measured by HPLC. The remaining mucosal pellet was solubilized overnight at 37° C. in a 0.1% sodium dodecyl sulfate buffer in 0.1N NaOH followed by determination of protein concentrations using a BCA protein assay (Pierce, Rockford, Ill.). 5-HT levels were normalized to protein and data were expressed as mean percent reduction of mucosal 5-HT levels relative to vehicle control±SEM (percent 5-HT reduction). All animal studies were carried out with protocols approved by the Institutional Animal Care and Use Committee. P-values, indicating statistical significance of the data (ANOVA) are provided in the table: * refers to P<0.05,** refers to P<0.01, *** refers to P<0.005, and **** refers to P<0.0005.
Regarding “(S)-cyclopentyl 8-(2-amino-6-((R)-1-(4′-chloro-3-(3- methyl-1H-pyrazol-1-yl)-[1,1′-biphenyl]-4-yl)-2,2,2- trifluoroethoxy)pyrimidin-4-yl)-2,8- diazaspiro[4.5]decane-3-carboxylate [Example 69b]”, the “Efficacy (statistical significance of reduction of mucosal 5-HT concentrations relative to vehicle)” value was “*** (*** refers to P<0.005)”.

Staying with this test, now noted: after three oral doses (first 10 or 50 mg/kg, then two doses of 50 mg/kg) (title), P-value class.
Regarding `CCOC(=O)[C@@H]1CC2(CCN(c3cc(O[C@H](c4ccc(Cl)cc4-n4ccc(C)n4)C(F)(F)F)nc(N)n3)CC2)CN1` [Example 63az, (S)-ethyl 8-(2-amino-6-((R)-1-(4-chloro-2-(3-methyl-1H-pyrazol-1-yl)phenyl)-2,2,2-trifluoroethoxy)pyrimidin-4-yl)-2,8-diazaspiro[4.5]decane-3-carboxylate], the “Efficacy (statistical significance of reduction of mucosal 5-HT concentrations relative to vehicle)” value is on record as “*** (*** refers to P<0.005)”. Consider `CCOC(=O)[C@@H]1CC2(CCN(c3cc(O[C@H](c4ccc(-c5ccc(C)c(C)c5)cc4-n4ccc(C)n4)C(F)(F)F)nc(N)n3)CC2)CN1` [Example 63bd, (S)-ethyl 8-(2-amino-6-((R)-1-(3′,4′-dimethyl-3-(3-methyl-1H-pyrazol-1-yl)-[1,1′-biphenyl]-4-yl)-2,2,2-trifluoroethoxy)pyrimidin-4-yl)-2,8-diazaspiro[4.5]decane-3-carboxylate], for which the “Efficacy (statistical significance of reduction of mucosal 5-HT concentrations relative to vehicle)” value is reported as “*** (*** refers to P<0.005)”. The same measure, in the same setting: for `CCOC(=O)[C@@H]1CC2(CCN(c3cc(O[C@H](c4ccc(-c5ccc(OC(C)C)cc5)cc4-n4ccc(C)n4)C(F)(F)F)nc(N)n3)CC2)CN1` [Example 63cn, (S)-ethyl 8-(2-amino-6-((R)-2,2,2-trifluoro-1-(4′-isopropoxy-3-(3-methyl-1H-pyrazol-1-yl)-[1,1′-biphenyl]-4-yl)ethoxy)pyrimidin-4-yl)-2,8-diazaspiro[4.5]decane-3-carboxylate] the value was “**** (**** refers to P<0.0005)”. As to `CCOC(=O)[C@@H]1CC2(CCN(c3cc(O[C@H](c4ccc(Cl)cc4-c4cccc(C(C)(C)C)c4)C(F)(F)F)nc(N)n3)CC2)CN1` [Example 63el, (S)-ethyl 8-(2-amino-6-((R)-1-(3′-(tert-butyl)-5-chloro-[1,1 biphenyl]-2-yl)-2,2,2-trifluoroethoxy)pyrimidin-4-yl)-2,8-diazaspiro[4.5]decane-3-carboxylate], the “Efficacy (statistical significance of reduction of mucosal 5-HT concentrations relative to vehicle)” value was “*** (*** refers to P<0.005)”. Still for that read-out and setting: with `CCOC(=O)[C@@H]1CC2(CCN(c3cc(O[C@H](c4ccccc4-c4cccc(Cl)c4)C(F)(F)F)nc(N)n3)CC2)CN1` [Example 63eo, (S)-ethyl 8-(2-amino-6-((R)-1-(3′-chloro-[1,1′-biphenyl]-2-yl)-2,2,2-trifluoroethoxy)pyrimidin-4-yl)-2,8-diazaspiro[4.5]decane-3-carboxylate] the entry was “*** (*** refers to P<0.005)”; with `CCOC(=O)[C@@H]1CC2(CCN(c3cc(O[C@H](c4ccc(Cl)cc4-c4cccc(OC)c4)C(F)(F)F)nc(N)n3)CC2)CN1` [Example 63ep, (S)-ethyl 8-(2-amino-6-((R)-1-(5-chloro-3′-methoxy-[1,1′-biphenyl]-2-yl)-2,2,2-trifluoroethoxy)pyrimidin-4-yl)-2,8-diazaspiro[4.5]decane-3-carboxylate], “*** (*** refers to P<0.005)”; with `CCOC(=O)[C@@H]1CC2(CCN(c3cc(O[C@H](c4ccc(Cl)cc4-c4cccc(F)c4)C(F)(F)F)nc(N)n3)CC2)CN1` [Example 63ev, (S)-ethyl 8-(2-amino-6-((R)-1-(5-chloro-3′-fluoro-[1,1′-biphenyl]-2-yl)-2,2,2-trifluoroethoxy)pyrimidin-4-yl)-2,8-diazaspiro[4.5]decane-3-carboxylate], “*** (*** refers to P<0.005)”. Same read-out and setting: for `CCOC(=O)[C@@H]1CC2(CCN(c3cc(O[C@H](c4ccc(Cl)cc4-c4cc(F)cc(F)c4)C(F)(F)F)nc(N)n3)CC2)CN1` [Example 63ey, (S)-ethyl 8-(2-amino-6-((R)-1-(5-chloro-3′,5′-difluoro-[1,1′-biphenyl]-2-yl)-2,2,2-trifluoroethoxy)pyrimidin-4-yl)-2,8-diazaspiro[4.5]decane-3-carboxylate] the value was “** (** refers to P<0.01)”; for `CCOC(=O)[C@@H]1CC2(CCN(c3cc(O[C@H](c4ccc(Cl)cc4-c4cccnc4)C(F)(F)F)nc(N)n3)CC2)CN1` [Example 63fo, (S)-ethyl 8-(2-amino-6-((R)-1-(4-chloro-2-(pyridin-3-yl)phenyl)-2,2,2-trifluoroethoxy)pyrimidin-4-yl)-2,8-diazaspiro[4.5]decane-3-carboxylate], “* (* refers to P<0.05)”. As for `CCOC(=O)[C@@H]1CC2(CCN(c3cc(O[C@H](c4ccc(-c5ccc(OC)cc5)cc4-n4ccc(C)n4)C(F)(F)F)nc(N)n3)CC2)CN1` [Example 63ha, (S)-ethyl 8-(2-amino-6-((R)-2,2,2-trifluoro-1-(4′-methoxy-3-(3-methyl-1H-pyrazol-1-yl)-[1,1′-biphenyl]-4-yl)ethoxy)pyrimidin-4-yl)-2,8-diazaspiro[4.5]decane-3-carboxylate], the “Efficacy (statistical significance of reduction of mucosal 5-HT concentrations relative to vehicle)” value is “** (** refers to P<0.01)”. On the same count and under the same terms, for `CCOC(=O)[C@@H]1CC2(CCN(c3cc(O[C@H](c4ccc(Cl)cc4-c4ccccc4)C(F)(F)F)nc(N)n3)CC2)CN1` [Example 63i, (S)-ethyl 8-(2-amino-6-((R)-1-(5-chloro-[1,1′-biphenyl]-2-yl)-2,2,2-trifluoroethoxy)pyrimidin-4-yl)-2,8-diazaspiro[4.5]decane-3-carboxylate] the value was “*** (*** refers to P<0.005)”; for `CC(C)OC(=O)[C@@H]1CC2(CCN(c3cc(O[C@H](c4ccc(Cl)cc4-c4ccccc4)C(F)(F)F)nc(N)n3)CC2)CN1` [Example 69a, (S)-isopropyl 8-(2-amino-6-((R)-1-(5-chloro-[1,1′-biphenyl]-2-yl)-2,2,2-trifluoroethoxy)pyrimidin-4-yl)-2,8-diazaspiro[4.5]decane-3-carboxylate], “*** (*** refers to P<0.005)”. As to `CCCOC(=O)[C@@H]1CC2(CCN(c3cc(O[C@H](c4ccc(Cl)cc4-c4ccccc4)C(F)(F)F)nc(N)n3)CC2)CN1` [Example 69c, (S)-propyl 8-(2-amino-6-((R)-1-(5-chloro-[1,1′-biphenyl]-2-yl)-2,2,2-trifluoroethoxy)pyrimidin-4-yl)-2,8-diazaspiro[4.5]decane-3-carboxylate], the “Efficacy (statistical significance of reduction of mucosal 5-HT concentrations relative to vehicle)” value is on record as “*** (*** refers to P<0.005)”.
